Target: endogenous wild-type p53 protein (Homo sapiens, UniProt P04637)
Test: Western blot of endogenous wild-type p53 protein degradation (knockdown) in HCT116 cells
Type: cell-based
Set-up: degradation (knockdown) of an endogenous wild-type p53 protein and MDM2 protein in HCT116 cells; endogenous in cells; host or cells: HCT116
Settings: 48 hours after addition, vs DMSO control
Protocol: In Example 2, degradation (knockdown) of an endogenous wild-type p53 protein and MDM2 protein in HCT116 cells (human large intestinal cancer cells) to which TIBC-CANDDY_MLN had been added was evaluated by Western blot analysis.
HCT116 cells were seeded in a 24-well plate at a cell density of 8×10^4 cells/well, and then cultured under conditions of 37° C. and 5 vol % CO2 for 16 hours.
After 16 hours from cell seeding, TIBC-CANDDY_MLN or TIBC was added to HCT116 cells as follows. As a medium, a serum-free medium (37° C.) in which 1 mass % L-glutamine solution (Sigma-Aldrich) was added to D-MEM (high D-glucose, phenol red, sodium pyruvate (Wako Pure Chemical Industries, Ltd.)) was used. It is noted that the L-glutamine solution was added immediately before use. […]
After electrophoresis, proteins were transferred to a PVDF membrane (Immobion™-P, Millipore) under conditions of 100 V and 2 hours using a tank-type blotting device and a transfer buffer (25 mM Tris-HCl, 195 mM glycine, 0.01% SDS, 15% methanol). […] Subsequently, the membrane was treated with a chemiluminescence reagent Immobilon™ Western (Millipore), and then chemiluminescence was detected using a lumino image analyzer LAS-3000 (FUJIFILM Corporation).

Chain of endogenous wild-type p53 protein (P04637 whole entry): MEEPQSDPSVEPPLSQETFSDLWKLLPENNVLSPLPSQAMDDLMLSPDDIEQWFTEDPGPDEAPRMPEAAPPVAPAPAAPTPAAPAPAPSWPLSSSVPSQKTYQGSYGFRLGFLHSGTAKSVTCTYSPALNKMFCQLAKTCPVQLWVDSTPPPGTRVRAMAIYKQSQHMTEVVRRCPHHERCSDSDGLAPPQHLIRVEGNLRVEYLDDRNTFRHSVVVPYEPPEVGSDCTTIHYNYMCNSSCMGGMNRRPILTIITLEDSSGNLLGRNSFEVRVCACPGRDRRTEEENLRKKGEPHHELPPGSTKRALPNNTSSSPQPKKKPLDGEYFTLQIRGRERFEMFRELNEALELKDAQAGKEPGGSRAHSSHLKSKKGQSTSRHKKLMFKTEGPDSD

amount of the endogenous wild-type p53 protein (Western blot): reduced
SMILES: CC(C)C[C@H](NC(=O)CNC(=O)c1cc(Cl)ccc1Cl)C(=O)NCCCCCCC(=O)Nc1ccc(C(=O)/C=C/c2ccc(I)cc2)cc1 [TIBC-CANDDY_MLN]

Reference: patent US11007269B2, “P53 degradation inducing molecule and pharmaceutical composition” (Tokyo University of Science Foundation, priority 2016, dated 2021)
